Results as given in BindingDB's records for doi:10.7270/Q2V986FT (Emory University, 2007).

The compounds below were run against T1, 14-3-3 protein gamma (Homo sapiens, UniProt P61981) (assay: modulators of 14-3-3 gamma client binding – dose response (AID 711)).
T1 sequence (P61981 whole entry): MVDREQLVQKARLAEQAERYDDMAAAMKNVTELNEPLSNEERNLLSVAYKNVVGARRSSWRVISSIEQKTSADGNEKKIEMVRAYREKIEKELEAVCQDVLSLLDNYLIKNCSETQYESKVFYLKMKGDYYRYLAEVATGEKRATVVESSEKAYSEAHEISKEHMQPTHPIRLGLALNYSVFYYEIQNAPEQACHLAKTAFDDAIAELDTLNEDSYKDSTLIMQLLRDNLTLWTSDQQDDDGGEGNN

**Q.** With `CC(N=O)C(=O)NCc1ccccn1` (stereo not drawn) [(2E)-2-(hydroxyimino)-N-(pyridin-2-ylmethyl)propanamide] as the compound, how does the IC50 read?
**A.** > 50 µM

**Q.** Which IC50 does the source give for `Cc1ccc(C2C3CN(C(C)C)CCC3=C(C#N)C(=N)C2(C#N)C#N)cc1` (stereo not drawn) [SMR000034220] here?
**A.** > 50 µM

**Q.** How did the IC50 turn out when `CC1=NC(c2ccccc2)C(C#N)(C#N)C(C#N)(C#N)C1` (stereo not drawn) [SMR000037705] was run?
**A.** 3.15 µM
